In patent US8513224B2, “Crystalline form C of tigecycline dihydrochloride and methods for its preparation” (Sandoz AG, priority 2008, dated 2013):
Structures can show the parent of a compound that is named as a salt.

Tests used:
Type in all cases: physicochemical
[1] = Physical stability at elevated temperatures (impurities by HPLC); conditions: for 4-Epi-Tigecycline 7 days at 80° C. / Total impurities 7 days at 80° C. / Stability in words (impurities after storage): stored 7 days at 80° C.; for 4-Epi-Tigecycline 7 days at 80° C. / Total impurities 7 days at 80° C.: in % (unit assumed)
Description: Tigecycline must be available in a physically stable form as well, in order to avoid degradation and as a consequence the building of undesired byproducts. Table 4 compares the stability data of the different crystalline forms of Tigecycline free base and Tigecycline hydrochloride with these of crystalline form C of Tigecycline dihydrochloride from the present invention.
Therefore crystalline form C of Tigecycline dihydrochloride in essentially pure polymorphic form is more preferred than amorphous Tigecycline dihydrochloride.

[2] = physchem
Protocol: The finished dosage form contains lyophilized amorphous Tigecycline respectively Tigecycline hydrochloride. Before lyophilizing, Tigecycline respectively acid addition salts of Tigecycline are dissolved in water, thus water solubility is an important factor to consider.
A UV-vis Lambda 35 spectrophotometer (Perkin-Elmer) was used (λ=347 nm, 1.0 cm quartz cells). Perkin Elmer® UV Win Lab-5.1 software was used.
A saturated solution of Tigecycline, Tigecycline hydrochloride or Tigecycline dihydrochloride in distilled water was prepared and the suspension was stirred at room temperature for 30 minutes with a stirring speed of 1000 U/min. The suspension was filtered through a 0.45 μm filter. Finally the resulting solution was diluted 10000-fold and measured against water at a wavelength of 347 nm.

[3] = Water content on storage at defined relative humidity; conditions: stored at about 0% relative humidity
Description: Form C of Tigecycline dihydrochloride is an anhydrous form, containing no water when stored at about 0% relative humidity and containing not more than about 0.8% to 1.7% e.g. when stored at about 50% relative humidity.

[4] = Thermodynamical stability (crystal structure after storage); conditions: stored 7 days at 80° C.

Row | Structure (SMILES) | 4-Epi-Tigecycline at ambient conditions [1] [%] | Total impurities at ambient conditions [1] [%] | 4-Epi-Tigecycline 7 days at 80° C. [1] | Total impurities 7 days at 80° C. [1] | further results
1 | CN(C)c1cc(NC(=O)CNC(C)(C)C)c(O)c2c1C[C@H]1C[C@H]3[C@H](N(C)C)C(O)=C(C(N)=O)C(=O)[C@@]3(O)C(O)=C1C2=O [A (xHCl), Tigecycline hydrochloride] |  |  |  |  | 4-Epi-Tigecycline at ambient conditions ([1]; hydrochloride): 0.84%; Total impurities at ambient conditions ([1]; hydrochloride): 1.07%; 4-Epi-Tigecycline 7 days at 80° C. ([1]; hydrochloride): 0.89; Total impurities 7 days at 80° C. ([1]; hydrochloride): 1.81; Water solubility, Concentration ([2]; 30 min): 503 mg/mL; solubility at 30 min ([2]; water, thermodynamic from solid, Water solubility, Concentration): 503 mg/mL
2 | CN(C)c1cc(NC(=O)CNC(C)(C)C)c(O)c2c1C[C@H]1C[C@H]3[C@H](N(C)C)C(O)=C(C(N)=O)C(=O)[C@@]3(O)C(O)=C1C2=O [B (xHCl), Tigecycline hydrochloride] |  |  |  |  | 4-Epi-Tigecycline at ambient conditions ([1]; hydrochloride): 0.93%; Total impurities at ambient conditions ([1]; hydrochloride): 1.91%; 4-Epi-Tigecycline 7 days at 80° C. ([1]; hydrochloride): 1.60; Total impurities 7 days at 80° C. ([1]; hydrochloride): 4.19
3 | CN(C)c1cc(NC(=O)CNC(C)(C)C)c(O)c2c1C[C@H]1C[C@H]3[C@H](N(C)C)C(O)=C(C(N)=O)C(=O)[C@@]3(O)C(O)=C1C2=O [C (x2HCl), Tigecycline dihydrochloride] | 0.73 | 0.83 | 2.40 | 2.60 | Water solubility compared with the other crystalline forms [2]: highest water solubility; Water content [3]: no water; Change of crystal structure on storage [4]: did not change its crystal structure
4 | CN(C)c1cc(NC(=O)CNC(C)(C)C)c(O)c2c1C[C@H]1C[C@H]3[C@H](N(C)C)C(O)=C(C(N)=O)C(=O)[C@@]3(O)C(O)=C1C2=O.Cl.Cl [C + 20% amorphous (x2HCl), Tigecycline dihydrochloride] | 1.73 | 1.81 | 4.34 | 4.88 | Stability in words (impurities after storage) [1]: less stable than a pure polymorphic form C
5 | CN(C)c1cc(NC(=O)CNC(C)(C)C)c(O)c2c1C[C@H]1C[C@H]3[C@H](N(C)C)C(O)=C(C(N)=O)C(=O)[C@@]3(O)C(O)=C1C2=O [WO 2006/128150 I, Tigecycline] | 0.36 | 0.75 | 2.15 | 11.20 | Stability in words (impurities after storage) [1]: tremendous increase in total impurities
6 | CN(C)c1cc(NC(=O)CNC(C)(C)C)c(O)c2c1C[C@H]1C[C@H]3[C@H](N(C)C)C(O)=C(C(N)=O)C(=O)[C@@]3(O)C(O)=C1C2=O [WO 2006/128150 II, Tigecycline] | 1.04 | 1.6 | 10.83 | 18.44 | Stability in words (impurities after storage) [1]: tremendous increase in total impurities
7 | CN(C)c1cc(NC(=O)CNC(C)(C)C)c(O)c2c1C[C@H]1C[C@H]3[C@H](N(C)C)C(=O)C(C(N)=O)=C(O)[C@@]3(O)C(=O)C1=C2O [WO 2006/128150 III, Tigecycline] | 0.16 | 0.16 | 2.18 | 4.46 | 
8 | CN(C)c1cc(NC(=O)CNC(C)(C)C)c(O)c2c1C[C@H]1C[C@H]3[C@H](N(C)C)C(O)=C(C(N)=O)C(=O)[C@@]3(O)C(O)=C1C2=O [WO 2006/128150 IV, Tigecycline] | 0.23 | 0.4 | 0.38 | 0.87 | 
9 | CN(C)c1cc(NC(=O)CNC(C)(C)C)c(O)c2c1C[C@H]1C[C@H]3[C@H](N(C)C)C(O)=C(C(N)=O)C(=O)[C@@]3(O)C(O)=C1C2=O [WO 2006/128150 V, Tigecycline] | < 0.05 | 0.22 | 0.18 | 0.37 | 
10 | CN(C)c1cc(NC(=O)CNC(C)(C)C)c(O)c2c1C[C@H]1C[C@H]3[C@H](N(C)C)C(O)=C(C(N)=O)C(=O)[C@@]3(O)C(O)=C1C2=O [WO 2007/127292 I, Tigecycline] |  |  |  |  | 4-Epi-Tigecycline at ambient conditions ([1]; listed as WO 2007/127792 I): 0.34%; Total impurities at ambient conditions ([1]; listed as WO 2007/127792 I): 0.59%; 4-Epi-Tigecycline 7 days at 80° C. ([1]; listed as WO 2007/127792 I): 1.26; Total impurities 7 days at 80° C. ([1]; listed as WO 2007/127792 I): 2.22
11 | CN(C)c1cc(NC(=O)CNC(C)(C)C)c(O)c2c1C[C@H]1C[C@H]3[C@H](N(C)C)C(O)=C(C(N)=O)C(=O)[C@@]3(O)C(O)=C1C2=O [WO 2007/127292 II, Tigecycline] |  |  |  |  | 4-Epi-Tigecycline at ambient conditions ([1]; listed as WO 2007/127792 II): 0.17%; Total impurities at ambient conditions ([1]; listed as WO 2007/127792 II): 0.24%; 4-Epi-Tigecycline 7 days at 80° C. ([1]; listed as WO 2007/127792 II): 0.38; Total impurities 7 days at 80° C. ([1]; listed as WO 2007/127792 II): 0.91
12 | CN(C)c1cc(NC(=O)CNC(C)(C)C)c(O)c2c1C[C@H]1C[C@H]3[C@H](N(C)C)C(O)=C(C(N)=O)C(=O)[C@@]3(O)C(O)=C1C2=O [WO 2008/066935 IX, Tigecycline] | 0.15 | 0.43 | 0.70 | 2.13 | 
13 | CN(C)c1cc(NC(=O)CNC(C)(C)C)c(O)c2c1C[C@H]1C[C@H]3[C@H](N(C)C)C(=O)C(C(N)=O)=C(O)[C@@]3(O)C(=O)C1=C2O [WO 2008/066935 XII, Tigecycline] | 0.15 | 0.4 | 0.70 | 4.38 | 
14 | CN(C)c1cc(NC(=O)CNC(C)(C)C)c(O)c2c1C[C@H]1C[C@H]3[C@H](N(C)C)C(O)=C(C(N)=O)C(=O)[C@@]3(O)C(O)=C1C2=O [amorphous (x2HCl), Tigecycline dihydrochloride] |  |  |  |  | 4-Epi-Tigecycline at ambient conditions ([1]; dihydrochloride): 4.97%; Total impurities at ambient conditions ([1]; dihydrochloride): 5.05%; 4-Epi-Tigecycline 7 days at 80° C. ([1]; dihydrochloride): 16.42; Total impurities 7 days at 80° C. ([1]; dihydrochloride): 18.82
